The source of these data is US10414759B2, “Phenylthiazoles and uses thereof” (Purdue Research Foundation, priority 2017, dated 2019).

SMILES strings stand for the structures. Values after ≈ are worked out from the molar mass of the structure shown.

In data set [1] the test system is human keratinocytes (HaCaT). Kind of data set: In vitro cytotoxicity against HaCaT (MTS). Type of data set: cell-based. As to conditions: 2 h incubation. As for the experimental part: Compound 17 was assayed at concentrations of 8, 16, 32, 64, 128, and 256 μg/mL against an immortal keratinocyte cell line (HaCaT) in order to determine the potential toxic effect against mammalian cells in vitro. Cells were cultured in Dulbeco's modified Eagle's medium (Sigma-Aldrich, St. Louis, Mo., USA) with 10% fetal bovine serum (USA Scientific, Inc.) at 37° C. with 5% CO2. Controls received DMSO alone at a concentration equal to that in drug-treated cell samples. The cells were incubated with the compounds in a 96-well plate at 37° C. and 5.0% CO2 for 2 h prior to addition of the assay reagent MTS 3-(4,5-dimethylthiazol-2-yl)-5-(3-carboxymethoxyphenyl)-2-(4-sulfophenyl)-2H-tetrazolium) (Promega, Madison, Wis., USA). Corrected absorbance readings (actual absorbance readings for each treatment […]) were taken using a kinetic ELISA microplate reader (Molecular Devices, Sunnyvale, Calif., USA). The quantity of viable cells after treatment with each compound is expressed as a percentage of the control, DMSO.

Data set [2] is described as follows: PBS solubility screen (turbidometric). Type of data set: physicochemical. As to conditions: aqueous buffer, kinetic from dmso stock. On the procedure:
The solutions were diluted 100-fold into PBS in a 96-well plate and mixed. The absorbance of the PBS-containing plate was measured prior to addition of the test agents to determine the background absorbance. After 2 h, the presence of precipitate was detected by turbidity (absorbance at 540 nm). […] The solubility limit is reported as the highest experimental concentration with no evidence of turbidity.

Data set [3] deals with VRE ATCC 700221. Kind of data set: MIC/MBC clinical isolate panel (Table 3). Format: cell-based, Enterococcus faecium. As to conditions: Enterococcus, Table 3, VRE ATCC 700221. As for the experimental part: MRSA clinical isolates, and vancomycin-resistant Staphylococcus aureus (VRSA) strain were obtained through the Network of Antimicrobial Resistance in Staphylococcus aureus (NARSA) program. In addition, vancomycin-resistant Enterococcus faecium (VRE) strain was obtained from the ATCC. Bacteria were cultured in cation-adjusted Mueller Hinton broth in a 96-well plate. Compounds, using triplicate samples, were added to the plate and serially diluted. […] Plates were visually inspected and the MIC was categorized as the concentration at which no visible growth of bacteria was observed. The average of triplicate MIC determinations is reported.
The minimum inhibitory concentration (MIC) of tested compounds and control antibiotics were determined using the broth microdilution method in accordance with the recommendations contained in the Clinical and Laboratory Standards Institute guidelines, against methicillin-sensitive (ATCC 6538 and NRS107), methicillin-resistant (MRSA), and vancomycin-resistant (VRSA) Staphylococcus aureus, Staphylococcus epidermidis, Enterococcus faecalis, E. faecium, Listeria monocytogenes, and Streptococcus pneumoniae clinical isolates. A bacterial solution equivalent to 0.5 McFarland standard was prepared and diluted in cation-adjusted Mueller-Hinton broth (CAMHB) to achieve a bacterial concentration of about 5×10^5 CFU/mL and seeded in 96-well plates. Enterococcus faecium was diluted in brain heart infusion broth. Enterococcus faecalis, Streptococcus pneumonia and Listeria monocytogenes were diluted in tryptone soya broth (TSB). Compounds and control drugs were added in the first row of 96-well plates and serially diluted (to achieve a concentration gradient ranging from 128 to 1 μg/mL). Plates were then incubated aerobically at 37° C. for at least 18 hours. The minimum bactericidal concentration (MBC) of the active compounds was tested by plating 5 μL from wells with no growth onto Tryptic soy agar (TSA) plates.

Data set [4] deals with NRS72 (MSSA). Kind of data set: MIC/MBC clinical isolate panel (Table 3). Type of data set: cell-based, S. aureus. As to conditions: Staphylococcus aureus, Table 3, NRS72 (MSSA). The method, boiled down:
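Broth dilution in cation-adjusted Mueller-Hinton broth with an inoculum of about 5×10^5 CFU/mL (from a 0.5 McFarland suspension), using triplicate serial dilutions. MIC was the lowest concentration with no visible growth by visual inspection, reported as the mean of triplicates.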

The test system of data set [5] is Caco-2 cells. In words: Caco-2 bidirectional permeability assay. On the technique in general: Passage across Caco-2 layers is used to estimate intestinal permeability.

As a reminder, the solubility is how much of the substance goes into solution per volume. Low readings indicate a poorly soluble substance, high ones a readily soluble substance. Broadly, the MBC is the lowest tested concentration that kills the bacteria rather than only halting them. Usually MIC stands for the lowest concentration found to suppress growth. For the molecule `CCCCc1ccc(-c2nc(C)c(-c3ccnc(NN)n3)s2)cc1` [Compound 17, 2-(4-Butylphenyl)-5-(2-hydrazinopyrimidin-4-yl)-4-methylthiazole], the “nontoxic up to a concentration of” value in data set [1] is 64 µg/mL. The same molecule came in with a solubility at 2 h in data set [2] of 55 µM (≈ 18.7 µg/mL). For the same molecule, the minimal bactericidal concentration (MBC) in data set [3] (read-out: MBC) and in data set [4] was 8 µg/mL (≈ 23.6 µM) throughout. For the same molecule, the minimal inhibitory concentration (MIC) in data set [3] (read-out: MIC) and in data set [4] (read-out: MIC) was 2 µg/mL (≈ 5.89 µM) throughout. The “Mean A→B Papp” value in data set [5] (Caco-2, apical to basolateral) stood at 1.6e-06 cm/s. Besides, in data set [5] (Caco-2, basolateral to apical), the “Mean B→A Papp” value stood at 2.8e-06 cm/s. Moreover, in data set [5] (Papp (B→A)/Papp (A→B)), the Efflux ratio came out at 1.8.
